Key:
Type in all cases: functional
Settings in all cases: read-out: DIZ
[1] = tested on: Aspergillus niger; experiment: Antifungal activity against Aspergillus niger at 0.13 mol/L after 2 to 4 days by paper disc method
[2] = tested on: Escherichia coli; experiment: Antibacterial activity against Escherichia coli at 0.13 mol/L after 12 to 24 hrs by paper disc method
[3] = tested on: Penicillium citrinum; experiment: Antifungal activity against Penicillium citrinum at 0.06 mol/L after 2 to 4 days by paper disc method
[4] = tested on: Penicillium citrinum; experiment: Antifungal activity against Penicillium citrinum at 0.25 mol/L after 2 to 4 days by paper disc method
[5] = tested on: Escherichia coli; experiment: Antibacterial activity against Escherichia coli at 0.03 mol/L after 12 to 24 hrs by paper disc method
[6] = tested on: Staphylococcus aureus; experiment: Antibacterial activity against Staphylococcus aureus at 0.13 mol/L after 12 to 24 hrs by paper disc method
[7] = tested on: Aspergillus niger; experiment: Antifungal activity against Aspergillus niger at 0.25 mol/L after 2 to 4 days by paper disc method
[8] = tested on: Staphylococcus aureus; experiment: Antibacterial activity against Staphylococcus aureus at 0.06 mol/L after 12 to 24 hrs by paper disc method
[9] = tested on: Penicillium citrinum; experiment: Antifungal activity against Penicillium citrinum at 0.13 mol/L after 2 to 4 days by paper disc method
[10] = tested on: Staphylococcus aureus; experiment: Antibacterial activity against Staphylococcus aureus at 0.25 mol/L after 12 to 24 hrs by paper disc method
[11] = tested on: Penicillium citrinum; experiment: Antifungal activity against Penicillium citrinum at 0.03 mol/L after 2 to 4 days by paper disc method
[12] = tested on: Escherichia coli; experiment: Antibacterial activity against Escherichia coli at 0.25 mol/L after 12 to 24 hrs by paper disc method
[13] = tested on: Staphylococcus aureus; experiment: Antibacterial activity against Staphylococcus aureus at 0.03 mol/L after 12 to 24 hrs by paper disc method
[14] = tested on: Aspergillus niger; experiment: Antifungal activity against Aspergillus niger at 0.06 mol/L after 2 to 4 days by paper disc method
[15] = tested on: Aspergillus niger; experiment: Antifungal activity against Aspergillus niger at 0.03 mol/L after 2 to 4 days by paper disc method
[16] = tested on: Escherichia coli; experiment: Antibacterial activity against Escherichia coli at 0.06 mol/L after 12 to 24 hrs by paper disc method

| Compound | zone of inhibition at 130000 µM [1] | zone of inhibition at 130000 µM [2] | zone of inhibition at 60000 µM [3] | zone of inhibition at 250000 µM [4] | zone of inhibition at 30000 µM [5] | zone of inhibition at 130000 µM [6] | zone of inhibition at 250000 µM [7] | zone of inhibition at 60000 µM [8] | zone of inhibition at 130000 µM [9] | zone of inhibition at 250000 µM [10] | zone of inhibition at 30000 µM [11] | zone of inhibition at 250000 µM [12] | zone of inhibition at 30000 µM [13] | zone of inhibition at 60000 µM [14] | zone of inhibition at 30000 µM [15] | zone of inhibition at 60000 µM [16] |
| --- | --- | --- | --- | --- | --- | --- | --- | --- | --- | --- | --- | --- | --- | --- | --- | --- |
| CC(C)C[C@H](/N=C/C=C/c1ccccc1)C(=O)O | 9.8 mm | 8.3 mm | 9.3 mm | 10.5 mm | 8 mm | 8 mm | 16.3 mm | 8.2 mm | 9 mm | 8 mm | 8.5 mm | 10 mm | 8 mm | 8 mm | 8 mm | 8 mm |
| COc1ccc(/C=C/C=N/CC(=O)O)cc1 | 17.7 mm | 8 mm | 8.7 mm | 21 mm | 8 mm | 8 mm | 23.3 mm | 9 mm | 11.7 mm | 8.7 mm | 11.5 mm | 13.5 mm | 8 mm | 8 mm | 11.3 mm | 8 mm |
| O=C(O)[C@H](Cc1ccc(O)cc1)/N=C/C=C/c1ccc(Cl)cc1 | 15.7 mm | 12 mm | 15.7 mm | 25 mm | 13.7 mm | 12.7 mm | 29.7 mm | 11.7 mm | 23.5 mm | 19.3 mm | 11.5 mm | 17.8 mm | 9.7 mm | 15.5 mm | 12.3 mm | 15.7 mm |
| CC(C)C[C@H](/N=C/C=C/c1ccc(Cl)cc1)C(=O)O | 20.7 mm | 17.8 mm | 19.7 mm | 28.3 mm | 9.3 mm | 11 mm | 29.3 mm | 16.8 mm | 25.7 mm | 28.3 mm | 16.5 mm | 17 mm | 8.7 mm | 18.7 mm | 18.3 mm | 10 mm |
| COc1ccc(/C=C/C=N/[C@@H](Cc2ccccc2)C(=O)O)cc1 | 13 mm | 13.8 mm | 10.5 mm | 24.7 mm | 13.2 mm | 8.3 mm | 19 mm | 8 mm | 19.7 mm | 12 mm | 14 mm | 12.3 mm | 8 mm | 10.8 mm | 18.3 mm | 8 mm |
| O=C(O)CC[C@H](/N=C/C=C/c1ccccc1)C(=O)O | 22.7 mm | 15 mm | 14 mm | 38 mm | 8 mm | 8.2 mm | 25 mm | 8 mm | 25.3 mm | 19.7 mm | 9.7 mm | 26 mm | 8 mm | 13.8 mm | 8 mm | 8 mm |
| CC(C)[C@H](/N=C/C=C/c1ccc(Cl)cc1)C(=O)O | 24 mm | 15.3 mm | 19.5 mm | 33.5 mm | 12 mm | 15.3 mm | 27.3 mm | 13.5 mm | 31 mm | 33 mm | 20.7 mm | 20.5 mm | 11 mm | 19 mm | 15.7 mm | 11 mm |
| O=C(O)C[C@H](/N=C/C=C/c1ccccc1)C(=O)O | 24 mm | 17.3 mm | 14.8 mm | 40.7 mm | 8 mm | 8 mm | 29.7 mm | 8 mm | 28 mm | 18 mm | 10.3 mm | 25 mm | 8 mm | 19.3 mm | 12.7 mm | 12 mm |
| O=C(O)C/N=C/C=C/c1ccc(Cl)cc1 | 23 mm | 18.2 mm | 20.3 mm | 25 mm | 19.3 mm | 9.7 mm | 23.7 mm | 8 mm | 21.7 mm | 22.2 mm | 16.3 mm | 22.8 mm | 12.3 mm | 21.7 mm | 12 mm | 21.7 mm |
| O=C(O)[C@H](Cc1ccccc1)/N=C/C=C/c1ccccc1 | 9.2 mm | 8 mm | 8 mm | 10.7 mm | 8 mm | 8 mm | 10.7 mm | 8 mm | 9.7 mm | 11 mm | 8 mm | 8 mm | 10 mm | 8.7 mm | 8 mm | 8 mm |
| CC(/N=C/C=C/c1ccccc1)C(=O)O (configuration not stated) | 8.3 mm | 8 mm | 9.3 mm | 8 mm | 8 mm | 8 mm | 9.7 mm | 8 mm | 10.3 mm | 8 mm | 12.3 mm | 11 mm | 8 mm | 8 mm | 8 mm | 8 mm |
| COc1ccc(/C=C/C=N/[C@@H](CC(=O)O)C(=O)O)cc1 | 22.5 mm | 10 mm | 12.8 mm | 34.3 mm | 10.3 mm | 10.2 mm | 16.3 mm | 8.3 mm | 23.7 mm | 8 mm | 8 mm | 9.5 mm | 8 mm | 11.2 mm | 8 mm | 10 mm |

Reference: ChEMBL document CHEMBL3751674, “Synthesis, antimicrobial activity of Schiff base compounds of cinnamaldehyde and amino acids” (2016)
